Reference: the kinase profiling compilation of Christmann-Franck et al. (2016)

Legend:
Experiment in all cases: KINOMEscan competition binding
Conditions in all cases: compound 10.0 µM
KIT (human) = KIT (human) (UniProt P10721)
BMPR2 (human) = BMPR2 (human) (UniProt Q13873)
HIPK1 (human) = HIPK1 (human) (UniProt Q86Z02)
MAP3K7 (human) = MAP3K7 (human) (UniProt O43318)
SIK1 (human) = SIK1 (human) (UniProt P57059)
NTRK1 (human) = NTRK1 (human) (UniProt P04629)
PAK2 (human) = PAK2 (human) (UniProt Q13177)
TGFBR1 (human) = TGFBR1 (human) (UniProt P36897)
Sequence of TGFBR1 (human) (P36897 whole entry, looked up): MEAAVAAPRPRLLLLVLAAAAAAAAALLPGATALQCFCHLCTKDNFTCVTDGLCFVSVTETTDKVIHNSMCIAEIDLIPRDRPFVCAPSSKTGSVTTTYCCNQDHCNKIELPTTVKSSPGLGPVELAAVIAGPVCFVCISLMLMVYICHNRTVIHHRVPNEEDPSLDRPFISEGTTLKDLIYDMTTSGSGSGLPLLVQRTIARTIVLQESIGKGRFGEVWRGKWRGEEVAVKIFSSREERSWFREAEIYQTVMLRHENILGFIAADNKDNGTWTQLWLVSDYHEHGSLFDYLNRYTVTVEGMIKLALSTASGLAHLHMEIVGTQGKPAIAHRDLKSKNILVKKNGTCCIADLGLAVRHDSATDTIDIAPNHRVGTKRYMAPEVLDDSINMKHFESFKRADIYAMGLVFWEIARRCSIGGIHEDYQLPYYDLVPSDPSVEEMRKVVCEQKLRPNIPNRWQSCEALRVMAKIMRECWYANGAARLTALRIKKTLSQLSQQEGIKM

EPHA2 (human) = EPHA2 (human) (UniProt P29317)
[1] = molecular target: JAK3 JH1 catalytic (human) (UniProt P52333)
AKT1 (human) = AKT1 (human) (UniProt P31749)
Sequence of AKT1 (human) (P31749 whole entry, looked up): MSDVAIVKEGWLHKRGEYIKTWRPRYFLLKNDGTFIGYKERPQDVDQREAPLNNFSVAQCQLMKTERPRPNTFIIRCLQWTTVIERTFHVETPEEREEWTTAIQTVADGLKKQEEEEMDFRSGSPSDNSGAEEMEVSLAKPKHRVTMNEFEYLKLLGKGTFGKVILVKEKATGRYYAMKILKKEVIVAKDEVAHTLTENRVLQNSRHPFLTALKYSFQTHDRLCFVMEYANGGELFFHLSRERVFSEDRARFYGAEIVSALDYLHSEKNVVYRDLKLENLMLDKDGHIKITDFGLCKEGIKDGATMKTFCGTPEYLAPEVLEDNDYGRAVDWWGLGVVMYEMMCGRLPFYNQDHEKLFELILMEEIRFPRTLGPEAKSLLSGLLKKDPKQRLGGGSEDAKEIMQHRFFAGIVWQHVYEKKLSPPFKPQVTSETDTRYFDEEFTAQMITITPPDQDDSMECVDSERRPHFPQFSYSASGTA

CDK19 (human) = CDK19 (human) (UniProt Q9BWU1)
GAK (human) = GAK (human) (UniProt O14976)
PIM2 (human) = PIM2 (human) (UniProt Q9P1W9)
AKT2 (human) = AKT2 (human) (UniProt P31751)
Sequence of AKT2 (human) (P31751 whole entry, looked up): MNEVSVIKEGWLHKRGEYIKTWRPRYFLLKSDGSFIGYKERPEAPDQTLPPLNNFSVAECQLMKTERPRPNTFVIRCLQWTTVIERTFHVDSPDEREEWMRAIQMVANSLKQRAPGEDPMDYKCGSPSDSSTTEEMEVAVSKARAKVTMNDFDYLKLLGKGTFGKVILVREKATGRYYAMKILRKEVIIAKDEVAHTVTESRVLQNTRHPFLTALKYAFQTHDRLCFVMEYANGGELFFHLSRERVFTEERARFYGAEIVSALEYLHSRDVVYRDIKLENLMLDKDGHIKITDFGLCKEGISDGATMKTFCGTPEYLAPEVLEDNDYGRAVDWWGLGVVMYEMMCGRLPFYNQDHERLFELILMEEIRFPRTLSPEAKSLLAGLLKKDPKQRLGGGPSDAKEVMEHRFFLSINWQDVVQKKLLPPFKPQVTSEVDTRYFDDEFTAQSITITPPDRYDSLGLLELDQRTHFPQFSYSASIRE

AXL (human) = AXL (human) (UniProt P30530)
GSK3B (human) = GSK3B (human) (UniProt P49841)
KDR (human) = KDR (human) (UniProt P35968)
RET (human) = RET (human) (UniProt P07949)
[2] = molecular target: TYK2 JH1 catalytic (human) (UniProt P29597)
STK39 (human) = STK39 (human) (UniProt Q9UEW8)
PKN1 (human) = PKN1 (human) (UniProt Q16512)
PTK2 (human) = PTK2 (human) (UniProt Q05397)
ROCK2 (human) = ROCK2 (human) (UniProt O75116)
MET (human) = MET (human) (UniProt P08581)
[3] = molecular target: JAK2 JH1 catalytic (human) (UniProt O60674)
Sequence of JAK2 JH1 catalytic (human) (O60674 whole entry, looked up): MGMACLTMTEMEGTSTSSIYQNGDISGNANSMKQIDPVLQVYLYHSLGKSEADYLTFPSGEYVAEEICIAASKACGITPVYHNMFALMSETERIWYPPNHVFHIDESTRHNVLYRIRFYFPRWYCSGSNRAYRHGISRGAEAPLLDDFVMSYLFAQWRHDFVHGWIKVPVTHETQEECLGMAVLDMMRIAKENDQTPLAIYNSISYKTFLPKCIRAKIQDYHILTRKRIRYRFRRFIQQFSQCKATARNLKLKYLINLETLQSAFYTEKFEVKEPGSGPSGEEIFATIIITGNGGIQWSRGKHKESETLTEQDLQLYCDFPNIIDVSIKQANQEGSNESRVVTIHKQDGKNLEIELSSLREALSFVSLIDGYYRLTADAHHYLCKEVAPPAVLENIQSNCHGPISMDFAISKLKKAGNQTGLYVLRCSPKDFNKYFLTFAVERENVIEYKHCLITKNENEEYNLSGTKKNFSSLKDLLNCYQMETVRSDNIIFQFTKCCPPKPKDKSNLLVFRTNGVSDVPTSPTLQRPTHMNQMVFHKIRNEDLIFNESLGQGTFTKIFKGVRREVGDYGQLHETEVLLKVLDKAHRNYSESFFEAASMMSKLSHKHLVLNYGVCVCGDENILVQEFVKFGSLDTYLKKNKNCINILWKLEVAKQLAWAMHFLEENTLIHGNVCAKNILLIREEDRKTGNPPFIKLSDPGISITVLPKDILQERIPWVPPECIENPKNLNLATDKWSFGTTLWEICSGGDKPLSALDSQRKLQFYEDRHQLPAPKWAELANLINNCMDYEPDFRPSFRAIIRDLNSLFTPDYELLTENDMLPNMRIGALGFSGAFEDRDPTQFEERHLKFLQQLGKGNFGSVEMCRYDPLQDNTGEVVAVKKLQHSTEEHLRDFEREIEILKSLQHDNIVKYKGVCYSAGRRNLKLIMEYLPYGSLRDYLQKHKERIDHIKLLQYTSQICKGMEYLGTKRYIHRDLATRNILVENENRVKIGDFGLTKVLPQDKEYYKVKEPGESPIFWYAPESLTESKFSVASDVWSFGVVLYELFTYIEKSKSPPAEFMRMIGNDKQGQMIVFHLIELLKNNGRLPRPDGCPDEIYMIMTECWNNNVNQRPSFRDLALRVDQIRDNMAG

TLK1 (human) = TLK1 (human) (UniProt Q9UKI8)
MAPK14 (human) = MAPK14 (human) (UniProt Q16539)
ULK2 (human) = ULK2 (human) (UniProt Q8IYT8)
NLK (human) = NLK (human) (UniProt Q9UBE8)
BRSK1 (human) = BRSK1 (human) (UniProt Q8TDC3)
INSR (human) = INSR (human) (UniProt P06213)
ACVR1B (human) = ACVR1B (human) (UniProt P36896)
MAPK10 (human) = MAPK10 (human) (UniProt P53779)
CHUK (human) = CHUK (human) (UniProt O15111)
Sequence of CHUK (human) (O15111 whole entry, looked up): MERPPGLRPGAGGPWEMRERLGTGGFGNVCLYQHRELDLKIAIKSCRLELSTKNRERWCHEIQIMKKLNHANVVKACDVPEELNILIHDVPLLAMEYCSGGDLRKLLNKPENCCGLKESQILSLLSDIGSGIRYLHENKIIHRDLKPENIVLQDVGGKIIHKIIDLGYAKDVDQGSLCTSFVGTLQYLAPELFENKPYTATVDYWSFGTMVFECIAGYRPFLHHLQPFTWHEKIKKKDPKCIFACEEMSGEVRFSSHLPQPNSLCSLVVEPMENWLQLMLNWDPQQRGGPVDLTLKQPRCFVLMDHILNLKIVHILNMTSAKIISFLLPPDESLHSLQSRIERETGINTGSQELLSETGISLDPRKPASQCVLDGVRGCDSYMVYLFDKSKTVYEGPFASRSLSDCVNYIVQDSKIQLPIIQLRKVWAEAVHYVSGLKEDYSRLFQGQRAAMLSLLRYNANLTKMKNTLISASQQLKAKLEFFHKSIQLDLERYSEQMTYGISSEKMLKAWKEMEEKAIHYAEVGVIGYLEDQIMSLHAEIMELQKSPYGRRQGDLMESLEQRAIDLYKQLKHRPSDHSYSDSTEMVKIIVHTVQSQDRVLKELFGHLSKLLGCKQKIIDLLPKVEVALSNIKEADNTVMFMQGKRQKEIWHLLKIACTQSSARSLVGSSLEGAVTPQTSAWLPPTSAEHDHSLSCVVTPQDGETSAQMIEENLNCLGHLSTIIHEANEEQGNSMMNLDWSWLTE

ADCK3 (human) = ADCK3 (human) (UniProt Q8NI60)
Sequence of ADCK3 (human) (Q8NI60 whole entry, looked up): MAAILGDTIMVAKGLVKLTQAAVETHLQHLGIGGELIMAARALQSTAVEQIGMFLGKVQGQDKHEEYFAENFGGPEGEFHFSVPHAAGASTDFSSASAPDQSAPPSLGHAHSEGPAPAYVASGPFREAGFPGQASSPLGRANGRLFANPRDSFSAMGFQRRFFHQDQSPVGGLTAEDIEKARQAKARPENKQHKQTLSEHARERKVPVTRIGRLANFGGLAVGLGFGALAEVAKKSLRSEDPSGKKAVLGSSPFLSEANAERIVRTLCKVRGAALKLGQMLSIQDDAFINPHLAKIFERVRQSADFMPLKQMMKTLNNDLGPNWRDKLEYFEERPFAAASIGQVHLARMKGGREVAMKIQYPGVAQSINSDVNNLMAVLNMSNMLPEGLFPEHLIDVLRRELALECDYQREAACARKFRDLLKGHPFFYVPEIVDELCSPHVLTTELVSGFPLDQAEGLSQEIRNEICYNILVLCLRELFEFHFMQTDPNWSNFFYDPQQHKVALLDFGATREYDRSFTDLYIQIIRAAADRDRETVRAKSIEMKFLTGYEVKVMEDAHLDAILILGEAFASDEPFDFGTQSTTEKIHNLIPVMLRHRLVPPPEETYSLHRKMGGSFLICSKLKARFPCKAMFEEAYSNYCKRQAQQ

PDPK1 (human) = PDPK1 (human) (UniProt O15530)
PIK3CG (human) = PIK3CG (human) (UniProt P48736)
MAP3K14 (human) = MAP3K14 (human) (UniProt Q99558)
ERBB4 (human) = ERBB4 (human) (UniProt Q15303)
MKNK1 (human) = MKNK1 (human) (UniProt Q9BUB5)

Sequence of KIT (human) (P10721 whole entry, looked up): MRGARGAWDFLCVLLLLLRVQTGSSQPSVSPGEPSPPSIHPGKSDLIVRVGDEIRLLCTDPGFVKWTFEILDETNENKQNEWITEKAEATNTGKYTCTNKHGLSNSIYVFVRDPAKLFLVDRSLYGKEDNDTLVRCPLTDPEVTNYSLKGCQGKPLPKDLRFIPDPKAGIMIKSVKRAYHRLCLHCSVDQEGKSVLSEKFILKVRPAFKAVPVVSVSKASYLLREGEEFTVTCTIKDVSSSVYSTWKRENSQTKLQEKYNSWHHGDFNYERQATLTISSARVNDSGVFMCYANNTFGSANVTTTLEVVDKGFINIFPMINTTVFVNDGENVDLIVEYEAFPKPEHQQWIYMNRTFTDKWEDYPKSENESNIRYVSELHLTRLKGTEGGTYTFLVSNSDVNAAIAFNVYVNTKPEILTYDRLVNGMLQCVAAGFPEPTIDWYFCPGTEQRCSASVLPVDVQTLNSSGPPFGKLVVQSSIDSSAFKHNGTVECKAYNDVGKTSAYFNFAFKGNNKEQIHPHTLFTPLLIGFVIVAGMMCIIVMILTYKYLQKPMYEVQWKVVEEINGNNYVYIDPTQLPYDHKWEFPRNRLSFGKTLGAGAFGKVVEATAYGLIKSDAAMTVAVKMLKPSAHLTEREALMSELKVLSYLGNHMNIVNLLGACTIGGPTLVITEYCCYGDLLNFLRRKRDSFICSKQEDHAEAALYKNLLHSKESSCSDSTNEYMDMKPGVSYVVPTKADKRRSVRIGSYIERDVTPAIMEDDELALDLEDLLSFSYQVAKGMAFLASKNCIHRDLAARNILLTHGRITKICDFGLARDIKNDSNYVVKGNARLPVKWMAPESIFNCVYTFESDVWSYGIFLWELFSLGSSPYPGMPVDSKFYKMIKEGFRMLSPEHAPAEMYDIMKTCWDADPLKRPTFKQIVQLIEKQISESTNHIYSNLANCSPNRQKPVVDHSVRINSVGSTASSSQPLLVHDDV

Structure (SMILES): O=C(Nc1ccc(Oc2ncnc3[nH]ncc23)cc1)Nc1ccc(Cl)c(C(F)(F)F)c1
- kinase still bound, per cent of control (KIT (human)): 0.05%
- kinase still bound, per cent of control (BMPR2 (human)): 81%
- kinase still bound, per cent of control (HIPK1 (human)): 52%
- kinase still bound, per cent of control (MAP3K7 (human)): 7.2%
- kinase still bound, per cent of control (SIK1 (human)): 100%
- kinase still bound, per cent of control (NTRK1 (human)): 41%
- kinase still bound, per cent of control (PAK2 (human)): 97%
- kinase still bound, per cent of control (TGFBR1 (human)): 93%
- kinase still bound, per cent of control (EPHA2 (human)): 37%
- kinase still bound, per cent of control [1]: 75%
- kinase still bound, per cent of control (AKT1 (human)): 100%
- kinase still bound, per cent of control (CDK19 (human)): 0.35%
- kinase still bound, per cent of control (GAK (human)): 90%
- kinase still bound, per cent of control (PIM2 (human)): 100%
- kinase still bound, per cent of control (AKT2 (human)): 96%
- kinase still bound, per cent of control (AXL (human)): 25%
- kinase still bound, per cent of control (GSK3B (human)): 99%
- kinase still bound, per cent of control (KDR (human)): 0%
- kinase still bound, per cent of control (RET (human)): 0%
- kinase still bound, per cent of control [2]: 88%
- kinase still bound, per cent of control (STK39 (human)): 72%
- kinase still bound, per cent of control (PKN1 (human)): 100%
- kinase still bound, per cent of control (PTK2 (human)): 94%
- kinase still bound, per cent of control (ROCK2 (human)): 63%
- kinase still bound, per cent of control (MET (human)): 58%
- kinase still bound, per cent of control [3]: 80%
- kinase still bound, per cent of control (TLK1 (human)): 100%
- kinase still bound, per cent of control (MAPK14 (human)): 0%
- kinase still bound, per cent of control (ULK2 (human)): 82%
- kinase still bound, per cent of control (NLK (human)): 44%
- kinase still bound, per cent of control (BRSK1 (human)): 86%
- kinase still bound, per cent of control (INSR (human)): 84%
- kinase still bound, per cent of control (ACVR1B (human)): 100%
- kinase still bound, per cent of control (MAPK10 (human)): 74%
- kinase still bound, per cent of control (CHUK (human)): 51%
- kinase still bound, per cent of control (ADCK3 (human)): 100%
- kinase still bound, per cent of control (PDPK1 (human)): 89%
- kinase still bound, per cent of control (PIK3CG (human)): 98%
- kinase still bound, per cent of control (MAP3K14 (human)): 97%
- kinase still bound, per cent of control (ERBB4 (human)): 94%
- kinase still bound, per cent of control (MKNK1 (human)): 5.4%
